Measured values as given in ChEMBL document CHEMBL1201862, “PubChem BioAssay data set” (2004).
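Cells were grown in 96-well plates and exposed to each compound for 48 hours at five concentrations; endpoints were interpolated linearly between bracketing concentrations, or set to the highest concentration if not reached. GI50 = concentration required for 50% inhibition of growth.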 The source made the active and inactive calls. Cut-off read from the data, not from the text of the source: active = GI50 up to about 1.1 µM and inactive = higher.

Columns and labels:
Test in all cases: inhibition of tumour cell growth, NCI panel, 48 h
[1] = system: SF-295
[2] = system: NCI-H522
[3] = system: Hs-578T
[4] = system: SF-268
[5] = system: MDA-N
[6] = system: HCT-116
[7] = system: SR
[8] = system: UACC-62
[9] = system: HCT-15
[10] = system: 786-0
[11] = system: SK-MEL-28
[12] = system: SK-MEL-2
[13] = system: UO-31
[14] = system: KM12
[15] = system: HL-60
[16] = system: SN12C
[17] = system: OVCAR-4
[18] = system: SK-MEL-5
[19] = system: SF-539
[20] = system: HT-29

| Compound | GI50 [1] | GI50 [2] | GI50 [3] | GI50 [4] | GI50 [5] | GI50 [6] | GI50 [7] | GI50 [8] | GI50 [9] [µM] | GI50 [10] | GI50 [11] | GI50 [12] | GI50 [13] | GI50 [14] | GI50 [15] | GI50 [16] | GI50 [17] | GI50 [18] | GI50 [19] | GI50 [20] |
| --- | --- | --- | --- | --- | --- | --- | --- | --- | --- | --- | --- | --- | --- | --- | --- | --- | --- | --- | --- | --- |
| COc1cc(-c2ccc(Nc3ccccc3C(=O)O)c(OC)c2)ccc1Nc1ccccc1C(=O)O | 11.9 µM (inactive) | 8.87 µM (inactive) | 11.3 µM (inactive) | 11.4 µM (inactive) | 10 µM (inactive) | 0.792 µM (active) | 0.557 µM (active) | 1.46 µM (inactive) | 0.619 | 4.52 µM (inactive) | 33.8 µM (inactive) | 19.3 µM (inactive) | 13.6 µM (inactive) | 7.53 µM (inactive) | 1.91 µM (inactive) | 9.91 µM (inactive) | 28.2 µM (inactive) | 16.6 µM (inactive) | 5.45 µM (inactive) | 31 µM (inactive) |
| CC(Oc1ccccc1Cl)C(=O)NN1C(=O)CC(=O)N(c2ccccc2)C1=S (stereo not given) | 39.1 µM (inactive) | 37 µM (inactive) | > 100 µM (inactive) | 86.7 µM (inactive) | 82.2 µM (inactive) | 34.9 µM (inactive) | 33.3 µM (inactive) | 33.3 µM (inactive) | 38 | 94.8 µM (inactive) | 88.3 µM (inactive) | 34.4 µM (inactive) | 53 µM (inactive) | 60.1 µM (inactive) | 18.7 µM (inactive) | > 100 µM (inactive) | 54 µM (inactive) | 42.8 µM (inactive) | 66.7 µM (inactive) | 54.5 µM (inactive) |
| COc1cccc(/C=C/c2cnc3ccccc3n2)c1OC | 46.1 µM (inactive) | 17 µM (inactive) | 19.1 µM (inactive) | 31.3 µM (inactive) | 61.1 µM (inactive) | 30.1 µM (inactive) | > 100 µM (inactive) | 28.4 µM (inactive) | 27.5 | 39.1 µM (inactive) | 44.2 µM (inactive) | 28.8 µM (inactive) | 34.1 µM (inactive) | 30.8 µM (inactive) | 34.4 µM (inactive) | 39.5 µM (inactive) | 25.6 µM (inactive) | 17.1 µM (inactive) | 45.7 µM (inactive) | 26.4 µM (inactive) |
| O=C1c2ccccc2CC12CCC1(CC2)OCCO1 | > 100 µM (inactive) | > 100 µM (inactive) | > 100 µM (inactive) | > 100 µM (inactive) | > 100 µM (inactive) | > 100 µM (inactive) | > 100 µM (inactive) | > 100 µM (inactive) | > 100 | > 100 µM (inactive) | > 100 µM (inactive) | > 100 µM (inactive) | > 100 µM (inactive) | > 100 µM (inactive) | > 100 µM (inactive) | > 100 µM (inactive) | > 100 µM (inactive) | > 10 µM (inactive) | > 100 µM (inactive) | > 100 µM (inactive) |
| CC[C@@]1(O)C(=O)OCc2c1c(Cl)c1n(c2=O)Cc2cc3ccccc3nc2-1 | 1.22 µM (inactive) | 1.69 µM (inactive) | 31.4 µM (inactive) | 1.31 µM (inactive) | 7.24 µM (inactive) | 1.36 µM (inactive) | 0.27 µM (active) | 0.528 µM (active) | 7.98 | 1.22 µM (inactive) | 10.4 µM (inactive) | 12.3 µM (inactive) | 1.26 µM (inactive) | 6.38 µM (inactive) | 2.19 µM (inactive) | 2.7 µM (inactive) | 8.97 µM (inactive) | 1.75 µM (inactive) | 2.08 µM (inactive) | 2.18 µM (inactive) |
| O=[N+]([O-])c1nccn1CCCNCCCn1ccnc1[N+](=O)[O-] | > 100 µM (inactive) | > 100 µM (inactive) | > 100 µM (inactive) | > 100 µM (inactive) | > 100 µM (inactive) | > 100 µM (inactive) | > 100 µM (inactive) | > 100 µM (inactive) | > 100 | > 100 µM (inactive) | > 100 µM (inactive) | > 100 µM (inactive) | > 100 µM (inactive) | > 100 µM (inactive) | > 100 µM (inactive) | > 100 µM (inactive) | > 100 µM (inactive) | > 100 µM (inactive) | > 100 µM (inactive) | 85.9 µM (inactive) |
| C=C(CC[C@@H](C)[C@H]1CC[C@H]2[C@@H]3C[C@@H](O)[C@H]4C[C@@H](O)CC[C@]4(CO)[C@H]3CC[C@]12C)C(C)C | 9.12 µM (inactive) | 5.24 µM (inactive) | 6.18 µM (inactive) | 6.35 µM (inactive) | 8.49 µM (inactive) | 2.9 µM (inactive) | 2.71 µM (inactive) | 8.15 µM (inactive) | 2.83 | 3.75 µM (inactive) | 4.1 µM (inactive) | 7.33 µM (inactive) | 3.42 µM (inactive) | 2.09 µM (inactive) | 6.34 µM (inactive) | 6.11 µM (inactive) | 6.84 µM (inactive) | 8.79 µM (inactive) | 9.75 µM (inactive) | 1.98 µM (inactive) |
| N#CC(C#N)=C/C=C/c1ccccc1[N+](=O)[O-] | > 10 µM (inactive) | 3.33 µM (inactive) | 3.48 µM (inactive) | > 10 µM (inactive) | 2.44 µM (inactive) | 1.87 µM (inactive) | 3.54 µM (inactive) | 3 µM (inactive) | 7.08 | 3.33 µM (inactive) | 2.11 µM (inactive) | > 10 µM (inactive) | 5.78 µM (inactive) | 5.02 µM (inactive) | 6.05 µM (inactive) | > 10 µM (inactive) | 6 µM (inactive) | 3.74 µM (inactive) | 6.76 µM (inactive) | 6.62 µM (inactive) |
| c1ccc2c(c1)Sc1nccc3ccnc-2c13 | 33.3 µM (inactive) | 21.9 µM (inactive) | 14 µM (inactive) | 18.7 µM (inactive) | 57.3 µM (inactive) | 27.4 µM (inactive) | 11.9 µM (inactive) | 23.3 µM (inactive) | > 10 | 80.4 µM (inactive) | 36.9 µM (inactive) | > 100 µM (inactive) | 7.5 µM (inactive) | 61 µM (inactive) | 27.8 µM (inactive) | 39 µM (inactive) | 59.2 µM (inactive) | 19.1 µM (inactive) | 47.6 µM (inactive) | 11.9 µM (inactive) |
| N#CCC1(c2ccc(Cl)cc2)NC(=O)c2ccccc21 (stereo not given) | > 100 µM (inactive) | > 100 µM (inactive) | > 100 µM (inactive) | > 100 µM (inactive) | > 100 µM (inactive) | > 100 µM (inactive) | > 100 µM (inactive) | > 100 µM (inactive) | > 100 | > 100 µM (inactive) | > 100 µM (inactive) | > 100 µM (inactive) | > 100 µM (inactive) | > 100 µM (inactive) | > 100 µM (inactive) | > 100 µM (inactive) | > 100 µM (inactive) | > 100 µM (inactive) | > 100 µM (inactive) | > 100 µM (inactive) |
| CCN(CC)CCOc1ccccc1/C=C/c1noc2ccccc12 | 16.2 µM (inactive) | 8.17 µM (inactive) | 15.7 µM (inactive) | 17.2 µM (inactive) | 11.8 µM (inactive) | 6.22 µM (inactive) | 11.7 µM (inactive) | 10.6 µM (inactive) | 10.5 | 13.6 µM (inactive) | 7.73 µM (inactive) | 0.736 µM (active) | 6.11 µM (inactive) | 16.4 µM (inactive) | 7.76 µM (inactive) | 11.5 µM (inactive) | 24.5 µM (inactive) | 3.79 µM (inactive) | 16 µM (inactive) | 2.27 µM (inactive) |
| Cc1cc(C)c2nccc(NCCCN(C)C)c2c1[N+](=O)[O-] | 26.1 µM (inactive) | 14.4 µM (inactive) | 34 µM (inactive) | 33 µM (inactive) | 38.8 µM (inactive) | 30.9 µM (inactive) | 30.6 µM (inactive) | 34.1 µM (inactive) | 15 | 36.2 µM (inactive) | 19.6 µM (inactive) | 23.8 µM (inactive) | 20.3 µM (inactive) | 31.4 µM (inactive) | 25.9 µM (inactive) | 40.9 µM (inactive) | 13.8 µM (inactive) | 13.5 µM (inactive) | 34.9 µM (inactive) | 18.7 µM (inactive) |
| COc1cc(C2S/C(=C/c3ccccc3)C(=O)N2c2cccc(Cl)c2)cc(OC)c1OC (stereo not given) | 33.7 µM (inactive) | 18.2 µM (inactive) | 86.7 µM (inactive) | 77.1 µM (inactive) | 30.2 µM (inactive) | 36.3 µM (inactive) | 19.4 µM (inactive) | 9.4 µM (inactive) | 34.8 | 33.3 µM (inactive) | 78.3 µM (inactive) | 62.7 µM (inactive) | 23.7 µM (inactive) | 27.4 µM (inactive) | 30.9 µM (inactive) | 55.2 µM (inactive) | 29.8 µM (inactive) | 35.7 µM (inactive) | 31 µM (inactive) | 44.9 µM (inactive) |
| Clc1ccc(CCN2CCN(CCCc3ccccc3)CC2)cc1Cl | 16.4 µM (inactive) | 20.6 µM (inactive) | 23.5 µM (inactive) | 20.4 µM (inactive) | 16.9 µM (inactive) | 15.1 µM (inactive) | 26.7 µM (inactive) | 16.8 µM (inactive) | 13.5 | 16.6 µM (inactive) | 18.7 µM (inactive) | 18.8 µM (inactive) | 12.2 µM (inactive) | 17.7 µM (inactive) | 15.7 µM (inactive) | 16 µM (inactive) | 16.3 µM (inactive) | 15.8 µM (inactive) | 17.8 µM (inactive) | 13.2 µM (inactive) |
